# Data: patent US12404283B2, “c-MYC mRNA translation modulators and uses thereof in the treatment of cancer” (Anima Biotech Inc., priority 2022, dated 2025)
# Numbered stars: 1 amine (or outer) side, 2 acyl side, 3 side chain; on linkers, the order of the positions; unused ones are H or OH. Bridge positions count the residues as written; N and C are the ends. Square brackets hold non-standard residues; d marks the D form. Peptide text beside a SMILES is read from it. I, II: the chains in the order shown. Actinocin(9to1) = Cc1c2oc3c(C)ccc(C(=O)[*:1])c3nc-2c(C(=O)[*:2])c(N)c1=O; NMeV = CN[C@H](C(=O)O)C(C)C; Sar = CNCC(=O)O
# Key:
# c-Myc = c-Myc immunofluorescence assay; format: cell-based, human; settings: A549 cells; for Myc Efficacy (−LogEC50): 24 hours treatment, anti-c-Myc immunofluorescence
# How it was run: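 High-content imaging (20×) of PFA-fixed A549 cells immunostained for c-Myc with DAPI nuclei, after 24 h compound treatment at increasing concentrations. Per-cell c-Myc signal in identified cell regions was plotted against dose and fitted by logistic regression to give EC50.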
# c-Myc mRNA [1] = experiment: c-Myc mRNA level and transcription sites in A549 cells; format: cell-based, human
# Source text: (§1) A549 cells were exposed to vehicle, general transcription inhibitor actinomycin D or anti-c-Myc compound.
# (§2) In gray, cell nuclei stained with DAPI; in red, c-Myc protein; in purple, c-Myc mRNA; in yellow, c-Myc transcription sites.
# c-Myc protein = c-Myc protein level in A549 cells; format: cell-based, human
# Source text: as §1, §2
# c-Myc mRNA [2] = experiment: Fluorescent in situ hybridization (FISH) assay for c-Myc mRNA; format: cell-based, human; settings: A549 cells, 4 hours, FIG. 3 lower panel
# Method: A549 cells were incubated with compounds for 24 hours (FIG. 3, upper panel) and c-Myc protein detected by immunofluorescence. In parallel, A549 cells were incubated with compounds for 4 hours and c-Myc mRNA was visualized by micrscopy using c-Myc mRNA specific fluorescent-tagged probes (FIG. 3, lower panel).
# A549 cells were grown in 384-wells plates (Perkin Elmer, Cat. 6057300) for 48 hours, treated with compounds for 4 hours and then fixed for 20 min in 4% paraformaldehyde. Next day, permeabilization was done for 90 min at 4° C., using 70% ethanol. Then, the cells were incubated for 10 min with 10% formamide in 10% saline-sodium citrate. Fluorescently labeled custome DNA probes that target c-Myc (Cy3, BioSearch Technologies, Cat. SMF-1063-5) and GAPDH (Cy5, BioSearch Technologies, Cat. SMF-2019-1) mRNAs were hybridized overnight at 37° C. in a dark chamber in 10% formamide. The next day, cells were washed twice with 10% formamide for 30 min. […]
# Following RNA FISH experiments, images of cells were taken with Operetta (Perkin Elmer, USA), a wide-field fluorescence microscope at ×63 magnification. […] In Columbus, cells were identified by their nucleus, using the “Find Nuceli” module, cytoplasm was detected based on the FISH-channel, and single mRNAs in the cytoplasm and transcription sites in the nucleus were detected using “Find Spots” module. […]
# A549 xenografts [3] = experiment: A549 xenograft model in nude mice; format: in vivo, NMRI nude female mice; settings: 3 mg/kg i.p. twice a week for 49 days, FIG. 5
# Method: NMRI nude female mice of 6-8 weeks of age were acclimated after shipping for >4 days. A549 cells, 5×10^6 in 100 ul Matrigel:PBS (50:50), were subcutaneously injected into flanks of mice. When the tumor size reached 80 to 200 mm^3, mice were grouped with similar average tumor size in each group, 10 animals per group. Compounds were dissolved in 10% DMSO, 10% Solutol, 80% water. Compounds were given i.p. for 49 days at 3 mg/kg twice a week. Caliper measurement of tumor size was done twice a week.
# Error bars represent median±SEM, n=10 mice at each time point and analyzed by one-tailed T-TEST in Prism for *p<0.05.
# A549 xenografts [4] = experiment: A549 xenograft tumor growth in nude mice; format: in vivo; settings: NMRI female nude mice, 3 mg/kg twice a week for 49 days, p<0.05
# Method: Relative tumor volumes of A549 xenografts in NMRI female nude mice after treatment with compound 3 mg/kg twice a week for 49 days. Error bars represent median±SEM, n=10 mice at each time point and analyzed by one-tailed T-TEST in Prism for *p<0.05
# A549 cells = experiment: Metabolic labeling (L-Azidohomoalanine) of global protein synthesis in A549 cells; format: cell-based, human
# Source text: FIG. 2 depicts selective regulation of c-Myc translation. […] In gray, cell nuclei stained with DAPI; in yellow, L-Azidohomoalanine (AHA) metabolic labeling.
# global translation = experiment: Metabolic labeling assay (global translation, modified methionine incorporation); format: cell-based, human; settings: A549 cells, 4 hour pulse, FIG. 2
# Method: A549 cells were incubated with active compounds and metabolically labelled with fluorescent methionine for a 4 hour pulse (click-chemistry modified methionine). Cells were fixed and newly synthesized proteins detected by using click-chemistry with a fluorescent detector (FIG. 2).
# A549 cells were seeded at 3,200 cells per well in complete culture medium. Plates were incubated at 37° C., 5% CO2 overnight. After 48 hours of incubation, the growth medium was aspirated, and cells were washed three times with HBSS. Metabolic labeling medium DMEM (-Cys-Met), containing 10% dialyzed FBS, 10% pencillin-streptomycin and 1% L-glutamine was added to the cells for 30 min. Then medium was replaced by metabolic labeling medium containing 25 μM L-Azidohomoalanine (AHA, ThermoFisher) and tested compounds at a final concentration of 30 μM, and cells were incubated for 4 hours at 37° C., 5% CO2. Cells were washed by HBSS at 37° C. for 15 min before fixing with 4% paraformaldehyde. Cells were washed twice with 3% BSA in PBS before permeabilization with 0.5% Triton X-100 in PBS for 20 min. The AHA staining with Alexa Fluor™ 555 alkyne was performed according to the manufacturer protocol. Images were captured with Operetta microscope (Perkin Elmer) using ×20 high NA objective lens.
molecule,measurement,setting,value
"Cc1c2oc3c(C)ccc(C(=O)N[C@@H]4C(=O)N[C@H](C(C)C)C(=O)N5CCC[C@H]5C(=O)N(C)CC(=O)N(C)[C@@H](C(C)C)C(=O)O[C@@H]4C)c3nc-2c(C(=O)N[C@@H]2C(=O)N[C@H](C(C)C)C(=O)N3CCC[C@H]3C(=O)N(C)CC(=O)N(C)[C@@H](C(C)C)C(=O)O[C@@H]2C)c(N)c1=O [actinomycin D] (I: T[dV]P[Sar][NMeV] / II: T[dV]P[Sar][NMeV]; ester I:1-I:C, II:1-II:C; linker I:N-II:N via Actinocin(9to1))",c-Myc protein detected by immunofluorescence,"c-Myc; 24 hours, FIG. 3 upper panel",reduced c-Myc protein
same,c-Myc mRNA level,c-Myc mRNA [1],complete reduction
same,c-Myc transcription sites,c-Myc mRNA [1],complete reduction
same,c-Myc protein level,c-Myc protein,significant decrease
same,c-Myc mRNA in the cytoplasm,c-Myc mRNA [2],mRNA accumulation in the cytoplasm
same,c-Myc transcription site (spots inside the nucleus),c-Myc mRNA [2],inhibited transcription site
"NC1(c2ccc(-c3cn4c(n3)sc3cc(C(=O)NCCCN5CCCCC5)ccc34)cc2)CC1 [compound 332, 2-(4-(1-aminocyclopropyl)phenyl)-N-(3-(piperidin-1-yl)propyl)benzo[d]imidazo [2,1-b]thiazole-7-carboxamide]",Myc Efficacy (−LogEC50),c-Myc,+++ (+++ ≥6)
same,c-Myc-dependent tumor growth (relative tumor volume),A549 xenografts [3],inhibited c-Myc-dependent tumor growth in-vivo
same,c-Myc-dependent tumor growth (relative tumor volumes),A549 xenografts [4],inhibited c-Myc-dependent tumor growth in-vivo
"CN1C2CCC1CC(NC(=O)c1ccc3c(c1)sc1nc(-c4ccc([C@@H]5CCCN5)cc4F)cn13)C2 (stereo partly drawn) [compound 531, 2-(2-fluoro-4-(pyrrolidin-2-yl)phenyl)-N-(8-methyl-8-azabicyclo[3.2.1]octan-3-yl)benzo[d]imidazo[2,1-b]thiazole-7-carboxamide]",Myc Efficacy (−LogEC50),c-Myc,++ (++ ≥5 and <6)
"NC(=O)c1ccc2c(c1)sc1nc(-c3ccc(C4CC(C(F)F)CN4)cc3F)cn12 (stereo not drawn) [compound 540, 2-(4-(4-(difluoromethyl)pyrrolidin-2-yl)-2-fluorophenyl)benzo[d]imidazo [2,1-b]thiazole-7-carboxamide]",Myc Efficacy (−LogEC50),c-Myc,+++ (+++ ≥6)
"CN1CCC(NC(=O)c2ccc3c(c2)sc2nc(-c4ccc(C5CC(C#N)CN5)cc4F)cn23)CC1 (stereo not drawn) [compound 541, 2-(4-(4-cyanopyrrolidin-2-yl)-2-fluorophenyl)-N-(1-methylpiperidin-4-yl)benzo[d]imidazo[2,1-b]thiazole-7-carboxamide]",Myc Efficacy (−LogEC50),c-Myc,+++ (+++ ≥6)
"O=C(NC1COCOC1)c1ccc2c(c1)sc1nc(-c3ccc(C4CCCN4)cc3F)cn12 (stereo not drawn) [compound 545, N-(1,3-dioxan-5-yl)-2-(2-fluoro-4-(pyrrolidin-2-yl)phenyl)benzo[d]imidazo[2,1-b]thiazole-7-carboxamide]",Myc Efficacy (−LogEC50),c-Myc,+++ (+++ ≥6)
"CN1CCC(NC(=O)c2ccc3c(c2)sc2nc(-c4ccc(C5CCNCC5O)cc4F)cn23)CC1 (stereo not drawn) [compound 546, 2-(2-fluoro-4-(3-hydroxypiperidin-4-yl)phenyl)-N-(1-methylpiperidin-4-yl)benzo[d]imidazo[2,1-b]thiazole-7-carboxamide]",Myc Efficacy (−LogEC50),c-Myc,+++ (+++ ≥6)
"O=C(NCCCN1CCC(F)CC1)c1ccc2c(c1)sc1nc(-c3cc4c(cc3F)CCN4)cn12 [compound 601, 2-(5-fluoroindolin-6-yl)-N-(3-(4-fluoropiperidin-1-yl)propyl)benzo[d]imidazo[2,1-b]thiazole-7-carboxamide]",Myc Efficacy (−LogEC50),c-Myc,+++ (+++ ≥6)
C[C@@H]1C[C@@H]([C@H](O)CC2CC(=O)NC(=O)C2)C(=O)[C@@H](C)C1 [cycloheximide],global protein synthesis (AHA metabolic labeling),A549 cells,total inhibition
same,incorporation of modified methionine (global translation),global translation,completely reduced incorporation of modified methionine
"N-(2- (dimethylamino)propyl)-2- (4- (methylcarbamoyl)phenyl) benzo[d]imidazo[2,1-b] thiazole-7-carboxamide [compound 239]",Myc Efficacy (−LogEC50),c-Myc,+ (+ >3 and <5)
